Source: PubChem BioAssay (NCI)
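GI50 marks 50% less growth. TGI denotes the concentration required for complete inhibition of growth.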

Experiments:
Assay in all cases: NCI anticancer screen, dose series, 384-well format
HCT-116 colon = tested on: HCT-116 colon
ACHN renal = tested on: ACHN renal
T-47D breast = tested on: T-47D breast
MOLT-4 leukemia = tested on: MOLT-4 leukemia
NCI-H322M lung = tested on: NCI-H322M lung
SK-MEL-28 melanoma = tested on: SK-MEL-28 melanoma
TK-10 renal = tested on: TK-10 renal
UACC-257 melanoma = tested on: UACC-257 melanoma
SK-OV-3 ovarian = tested on: SK-OV-3 ovarian
CAKI-1 renal = tested on: CAKI-1 renal
HL-60(TB) leukemia = tested on: HL-60(TB) leukemia
OVCAR-3 ovarian = tested on: OVCAR-3 ovarian
M14 melanoma = tested on: M14 melanoma
A549 NSCLC = tested on: A549 NSCLC
HT29 colon = tested on: HT29 colon
NCI-H23 lung = tested on: NCI-H23 lung
786-0 renal = tested on: 786-0 renal
RXF 393 renal = tested on: RXF 393 renal
OVCAR-8 ovarian = tested on: OVCAR-8 ovarian
OVCAR-4 ovarian = tested on: OVCAR-4 ovarian
COLO 205 colon = tested on: COLO 205 colon
SF-295 CNS = tested on: SF-295 CNS
OVCAR-5 ovarian = tested on: OVCAR-5 ovarian
DU-145 prostate = tested on: DU-145 prostate
HS 578T breast = tested on: HS 578T breast
SNB-19 CNS = tested on: SNB-19 CNS
RPMI-8226 leukemia = tested on: RPMI-8226 leukemia
SW-620 colon = tested on: SW-620 colon
HCT-15 colon = tested on: HCT-15 colon
MDA-MB-468 breast = tested on: MDA-MB-468 breast
IGROV1 ovarian = tested on: IGROV1 ovarian
PC-3 prostate = tested on: PC-3 prostate
NCI-H522 lung = tested on: NCI-H522 lung
SF-268 CNS = tested on: SF-268 CNS
A498 renal = tested on: A498 renal
SR leukemia = tested on: SR leukemia
MCF7 breast = tested on: MCF7 breast
EKVX NSCLC = tested on: EKVX NSCLC
KM12 colon = tested on: KM12 colon
LOX IMVI melanoma = tested on: LOX IMVI melanoma
UACC-62 melanoma = tested on: UACC-62 melanoma
BT-549 breast = tested on: BT-549 breast
SN12C renal = tested on: SN12C renal
MDA-MB-435 melanoma = tested on: MDA-MB-435 melanoma
SF-539 CNS = tested on: SF-539 CNS
UO-31 renal = tested on: UO-31 renal
SNB-75 CNS = tested on: SNB-75 CNS
CCRF-CEM leukemia = tested on: CCRF-CEM leukemia
HOP-62 NSCLC = tested on: HOP-62 NSCLC
MALME-3M melanoma = tested on: MALME-3M melanoma
MDA-MB-231 breast = tested on: MDA-MB-231 breast
NCI-H460 NSCLC = tested on: NCI-H460 NSCLC
NCI-H226 lung = tested on: NCI-H226 lung
SK-MEL-5 melanoma = tested on: SK-MEL-5 melanoma
U251 glioblastoma = tested on: U251 glioblastoma

Molecule `COc1ccc2[nH]c3c(c2c1)CCN[C@]31CS[C@@H]2c3c(OC(C)=O)c(C)c4c(c3[C@H](COC1=O)N1[C@@H]2[C@H]2c3c(cc(C)c(OC)c3O)C[C@@H]([C@@H]1O)N2C)OCO4` has a GI50 (HCT-116 colon) of 0.16 nM, a GI50 (ACHN renal) of 0.435 nM and a TGI (ACHN renal) of 1.61 nM. The GI50 (T-47D breast) was 0.41 nM, the TGI (T-47D breast) was 2.56 nM and the GI50 (MOLT-4 leukemia) was 0.0141 nM. It also gave a TGI (MOLT-4 leukemia) of 0.0474 nM, a GI50 (NCI-H322M lung) of 0.522 nM and a TGI (NCI-H322M lung) of 1.29 nM. It also gave a GI50 (SK-MEL-28 melanoma) of 0.44 nM, a TGI (SK-MEL-28 melanoma) of 0.877 nM and a GI50 (TK-10 renal) of 2.64 nM. For the same molecule, the TGI (TK-10 renal) was 7.17 nM, the GI50 (UACC-257 melanoma) was 0.428 nM and the TGI (UACC-257 melanoma) was 0.848 nM. The GI50 (SK-OV-3 ovarian) was 0.181 nM, the TGI (SK-OV-3 ovarian) was 9.81 nM and the GI50 (CAKI-1 renal) was 0.156 nM. The TGI (CAKI-1 renal) was 6.95 nM, the GI50 (HL-60(TB) leukemia) was 0.0524 nM and the TGI (HL-60(TB) leukemia) was 0.0982 nM. For the same molecule, the GI50 (OVCAR-3 ovarian) was 0.189 nM, the TGI (OVCAR-3 ovarian) was 0.863 nM and the GI50 (M14 melanoma) was 0.0827 nM. The TGI (M14 melanoma) was 0.191 nM, the GI50 (A549 NSCLC) was 0.65 nM and the TGI (A549 NSCLC) was 2.91 nM. For the same molecule, the GI50 (HT29 colon) was 0.123 nM, the TGI (HT29 colon) was 0.42 nM and the GI50 (NCI-H23 lung) was 0.0752 nM. The TGI (NCI-H23 lung) was 0.194 nM, the GI50 (786-0 renal) was 0.194 nM and the TGI (786-0 renal) was 0.348 nM. For the same molecule, the GI50 (RXF 393 renal) was 0.0493 nM, the TGI (RXF 393 renal) was 0.111 nM and the GI50 (OVCAR-8 ovarian) was 0.126 nM. The TGI (OVCAR-8 ovarian) was 0.487 nM, the GI50 (OVCAR-4 ovarian) was 2.59 nM and the TGI (OVCAR-4 ovarian) was 5.77 nM. It also gave a GI50 (COLO 205 colon) of 0.432 nM, a TGI (COLO 205 colon) of 1.06 nM and a GI50 (SF-295 CNS) of 0.0573 nM. It also gave a TGI (SF-295 CNS) of 0.115 nM, a GI50 (OVCAR-5 ovarian) of 0.51 nM and a GI50 (DU-145 prostate) of 0.196 nM. The TGI (DU-145 prostate) was 0.367 nM, the GI50 (HS 578T breast) was 0.13 nM and the TGI (HS 578T breast) was 0.372 nM. The GI50 (SNB-19 CNS) was 0.124 nM, the GI50 (RPMI-8226 leukemia) was 0.0579 nM and the TGI (RPMI-8226 leukemia) was 0.108 nM. It also gave a GI50 (SW-620 colon) of 0.502 nM, a TGI (SW-620 colon) of 6.77 nM and a GI50 (HCT-15 colon) of 0.414 nM. The TGI (HCT-15 colon) was 1.06 nM, the GI50 (MDA-MB-468 breast) was 0.0569 nM and the TGI (MDA-MB-468 breast) was 0.119 nM. For the same molecule, the GI50 (IGROV1 ovarian) was 0.416 nM, the TGI (IGROV1 ovarian) was 7.86 nM and the GI50 (PC-3 prostate) was 0.337 nM. It also gave a TGI (PC-3 prostate) of 2.85 nM, a GI50 (NCI-H522 lung) of 0.0779 nM and a TGI (NCI-H522 lung) of 0.261 nM. The GI50 (SF-268 CNS) was 0.0705 nM, the TGI (SF-268 CNS) was 0.186 nM and the GI50 (A498 renal) was 1.16 nM. It also gave a TGI (A498 renal) of 2.96 nM, a GI50 (SR leukemia) of 0.0186 nM and a TGI (SR leukemia) of 0.0575 nM. It also gave a GI50 (MCF7 breast) of 0.12 nM, a TGI (MCF7 breast) of 5.95 nM and a GI50 (EKVX NSCLC) of 0.649 nM. It also gave a TGI (EKVX NSCLC) of 1.49 nM, a GI50 (KM12 colon) of 1.44 nM and a TGI (KM12 colon) of 3.96 nM. The GI50 (LOX IMVI melanoma) was 0.0682 nM, the TGI (LOX IMVI melanoma) was 0.18 nM and the GI50 (UACC-62 melanoma) was 0.0874 nM. For the same molecule, the TGI (UACC-62 melanoma) was 0.31 nM, the GI50 (BT-549 breast) was 0.0503 nM and the TGI (BT-549 breast) was 0.113 nM. For the same molecule, the GI50 (SN12C renal) was 0.107 nM, the TGI (SN12C renal) was 0.422 nM and the GI50 (MDA-MB-435 melanoma) was 0.594 nM. The TGI (MDA-MB-435 melanoma) was 1.1 nM, the GI50 (SF-539 CNS) was 0.0587 nM and the TGI (SF-539 CNS) was 0.111 nM. For the same molecule, the GI50 (UO-31 renal) was 1.68 nM, the TGI (UO-31 renal) was 3.1 nM and the GI50 (SNB-75 CNS) was 0.0809 nM. For the same molecule, the TGI (SNB-75 CNS) was 0.224 nM, the GI50 (CCRF-CEM leukemia) was 0.0192 nM and the TGI (CCRF-CEM leukemia) was 0.0348 nM. For the same molecule, the GI50 (HOP-62 NSCLC) was 0.0549 nM, the TGI (HOP-62 NSCLC) was 0.115 nM and the GI50 (MALME-3M melanoma) was 0.0967 nM. It also gave a TGI (MALME-3M melanoma) of 0.273 nM, a GI50 (MDA-MB-231 breast) of 0.786 nM and a TGI (MDA-MB-231 breast) of 2.42 nM. It also gave a GI50 (NCI-H460 NSCLC) of 0.104 nM, a TGI (NCI-H460 NSCLC) of 0.446 nM and a GI50 (NCI-H226 lung) of 0.109 nM. The TGI (NCI-H226 lung) was 0.452 nM, the GI50 (SK-MEL-5 melanoma) was 0.0874 nM and the TGI (SK-MEL-5 melanoma) was 0.243 nM. The GI50 (U251 glioblastoma) was 0.112 nM and the TGI (U251 glioblastoma) was 0.554 nM.
